Measured values as given in article PMC5025651, “Reprofiled anthelmintics abate hypervirulent stationary-phase Clostridium difficile” (Scientific Reports, 2016).
Converted amounts (≈) assume the structure as drawn. Where a name gives a salt, the structure may show the parent alone. Read-outs that look alike come from different tables or passages of the source.

Key:
[1] = system: C. difficile isolate 20110986 (ribotype 078); assay: MIC by broth microdilution; type: cell-based, Clostridium difficile; settings: Clostridioides difficile
[2] = system: C. difficile isolate 20100584 (ribotype 014); assay: MIC by broth microdilution; type: cell-based, Clostridium difficile; settings: Clostridioides difficile
[3] = ruminants; cited from earlier work
[4] = system: L. johnsonii Strain 135-1-CHN; assay: MIC by broth microdilution; type: cell-based; settings: Lactobacillus johnsonii, STRAIN1351CHN
A. baumannii M2 = assay: MIC by broth microdilution; type: cell-based; settings: Acinetobacter baumannii
[5] = system: C. difficile strain 630 (CD630, ATCC BAA-1382-FZ, ribotype 012); assay: MIC by broth microdilution; type: cell-based, Clostridium difficile
HepG2 cells = assay: In vitro cytotoxicity, MTS assay; type: cell-based, human; settings: for in vitro toxicity compared with niclosamide (in words): 0.125–32 μg/mL
Method: (§1) Cell lines Hep G2 [HEPG2] (ATCC® HB-8065^TM) and 293T/17 [HEK 293T/17] (ATCC® CRL-11268^TM) were purchased from ATCC and cultured according to manufacturer’s instructions. HEPG2 or HEK 293T/17 cells were cultured in 96-well plates, and incubated at 37 °C in a 5% CO2 humidifying chamber for 24 h. Cells were then treated with test compounds at concentrations ranging from 0.125–32 μg/mL, and an MTS assay was performed at 16-h post-incubation at 37 °C in a 5% CO2 humidifying chamber, using the CellTiter 96 aqueous non-radioactive cell proliferation assay kit (Promega, Madison, WI, USA) per manufacturer’s instructions. MTS assays were performed in duplicate.

HEK 293T/17 cells = assay: In vitro cytotoxicity, MTS assay; type: cell-based, human; settings: HEK 293T/17, MTS; for in vitro toxicity compared with niclosamide (in words): 0.125–32 μg/mL
Method: as §1

Sheep red blood cells = assay: Hemolysis assay; type: cell-based; settings: tested at 32 μg/mL, sheep erythrocytes
In short: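 Compounds at a final 32 μg/mL were incubated 1 h at 37 °C with a 3% sheep red cell suspension in PBS pH 7.4, in triplicate. Hemolysis came from A540 of the cleared supernatant, with 1% Triton X-100 and 0.5% DMSO/PBS as the controls.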

C. difficile strain 4118 = assay: Serial passage experiments (resistance development); type: cell-based, Clostridium difficile; settings: after 21 serial passages of CD4118 at 0.5 × MIC
Method: C. difficile strain 4118 serial passages were performed in BHIS containing 0.03% L-cysteine, using the broth microdilution method. The MIC for each compound was first determined according to the procedure detailed above. […] Serial passage experiments were performed in duplicate.

[6] = system: panel of obligate aerobes, facultative anaerobes and obligate anaerobes; assay: Antibacterial spectrum, MIC against a panel of bacteria; type: cell-based; settings: ratio of MIC values
[7] = isolate 20110986, ribotype 078, duplicate, read-out: MIC
[8] = isolate 20100584, ribotype 014, duplicate, read-out: MIC
[9] = L. johnsonii 135-1-CHN, CAMHB with 5% laked horse blood, ~48 h, duplicate, read-out: MIC
[10] = A. baumannii M2, CAMHB, aerobic, duplicate, read-out: MIC

Compound | MIC [1, 7] | MIC [2, 8] | excreted unchanged in the feces [3] | MIC [4, 9] | MIC (A. baumannii M2; [10]) | MIC C. difficile 630 ([5]; BHIS broth, anaerobic, 20–24 h, n = 2) | decrease in MIC relative to 5g ([5]; CD630 and CD4118 (Table 2)) | MIC ([5]; Clostridioides difficile, ATCCBAA1382, BHIS broth, anaerobic, 20–24 h, n = 2) | in vitro toxicity compared with niclosamide (in words) (HepG2 cells; HepG2, MTS) | in vitro toxicity compared with niclosamide (in words) (HEK 293T/17 cells) | rupture of red blood cells (in words) (Sheep red blood cells) | final MIC relative to initial (pre-passage) MIC (C. difficile strain 4118) | MIC [1] | MIC [2] | selectivity for C. difficile over Bifidobacterium/Lactobacillus strains and Gram-negative gut commensals (Bacteroides species) [6] | no-effect concentration on mammalian cell viability relative to MIC values against C. difficile (HepG2 cells; 8 μg/mL, HepG2 and HEK 293T/17) | concentration with no apparent effect on cell viability (HepG2 cells; HepG2, MTS, 16 h) | concentration with no apparent effect on cell viability (HEK 293T/17 cells; 16 h) | MIC ([4]; 48 h) | MIC (A. baumannii M2; M2)
Cc1cc(C(C#N)c2ccc(Cl)cc2)c(Cl)cc1NC(=O)c1cc(I)cc(I)c1O (stereo not drawn) [Closantel] | 0.25 µg/mL (≈ 0.377 µM) | 0.25 µg/mL (≈ 0.377 µM) | ≤ 90% | 32 µg/mL (≈ 48.3 µM) | > 32 µg/mL | – | – | – | – | – | – | – | – | – | – | – | – | – | – | –
O=C(Nc1ccc(Oc2ccc(Cl)cc2)cc1)c1cc(Cl)cc(Cl)c1O [Compound 8] | 0.06 µg/mL (≈ 0.147 µM) | 0.06 µg/mL (≈ 0.147 µM) | – | 32 µg/mL (≈ 78.3 µM) | 32 µg/mL (≈ 78.3 µM) | 0.03 µg/mL (≈ 0.0734 µM) | 4 fold | 0.03 µg/mL (≈ 0.0734 µM) | lower in vitro toxicities | lower in vitro toxicities | did not cause rupture of red blood cells | – | – | – | – | – | – | – | – | –
Cc1ncc([N+](=O)[O-])n1CCO [Metronidazole, metronidazole] | 0.13 to 0.25 µg/mL (≈ 0.76 to 1.46 µM) | 0.25 µg/mL (≈ 1.46 µM) | – | > 32 µg/mL | > 32 µg/mL | – | – | – | – | – | – | ~ 2 fold | – | – | – | – | – | – | – | –
O=C(Nc1ccc(Oc2ccc(Cl)cc2)c(Cl)c1)c1cc(I)cc(I)c1O [Rafoxanide, rafoxanide] | – | – | – | – | – | – | – | – | lower in vitro toxicities | lower in vitro toxicities | did not cause rupture of red blood cells | – | 0.06 to 0.13 µg/mL (≈ 0.0958 to 0.208 µM) | 0.06 µg/mL (≈ 0.0958 µM) | ≥ 32 fold | ≥ 64 fold | ≥ 8000 ng/mL | ≥ 8000 ng/mL | 32 µg/mL (≈ 51.1 µM) | > 32 µg/mL
CN[C@H](CC(C)C)C(=O)N[C@H]1C(=O)N[C@@H](CC(N)=O)C(=O)N[C@H]2C(=O)N[C@H]3C(=O)N[C@H](C(=O)N[C@H](C(=O)O)c4cc(O)cc(O)c4-c4cc3ccc4O)[C@H](O)c3ccc(c(Cl)c3)Oc3cc2cc(c3O[C@@H]2O[C@H](CO)[C@@H](O)[C@H](O)[C@H]2O[C@H]2C[C@](C)(N)[C@H](O)[C@H](C)O2)Oc2ccc(cc2Cl)[C@H]1O [Vancomycin, vancomycin hydrochloride hydrate] | 0.5 to 1 µg/mL | 0.5 µg/mL | – | 0.5 µg/mL | > 32 µg/mL | – | – | – | – | – | – | ~ 2 fold | – | – | – | – | – | – | – | –
